# Reference: ChEMBL document CHEMBL6092215, “A Prostate-Specific Membrane Antigen-Targeting Small Molecule-Drug Conjugate Strategy to Overcome the Hematological Toxicity of Olaparib” (J Med Chem, 2024)
# Key:
# [1] = Subacute toxicity in male ICR mouse assessed as decrease in body weight at 195 to 390 mg/kg, po administered via gavage for 30 days; type: organism-based; settings: in vivo, 720 h, dose 195-390 mg/kg, time 30 day
# CWR22R [2] = test: Antitumor activity against human 22Rv1 cells xenografted in male BALB/c nude mouse assessed as tumor growth inhibition at 100 mg/kg administered via gavage relative to control; type: functional; settings: 22Rv1, po, read-out: TGI
# [3] = Volume of distribution in Sprague-Dawley rat at 5 mg/kg, iv measured after 24 hrs by UPLC-MS/MS analysis; type: ADME, organism-based; settings: in vivo
# [4] = Antiproliferative activity against PSMA negative human RWPE-1 cells assessed as effect on cell viability incubated for 72 hrs by MTT assay; type: toxicity, cell-based; settings: RWPE-1 cells (PSMA negative)
# [5] = Drug uptake in PSMA positive human 22Rv1 cells at 10 uM measured after 1 to 6 hrs in presence of PSMA ligand DUPA by LC-MS/MS analysis; type: ADME, cell-based; settings: cwr22r, time 1-6 hrs
# CWR22R [6] = test: Antiproliferative activity against human 22Rv1 cells assessed as reduction in cell viability at 125 uM in presence of DUPA; type: functional, cell-based
# [7] = Toxicity in male BALB/c nude mouse xenografted with human 22Rv1 cells assessed as decrease in WBC at 25 to 100 mg/kg administered via gavage by routine blood test; type: organism-based; settings: in vivo, po, dose 25-100 mg/kg
# [8] = Tmax in Sprague-Dawley rat at 100 mg/kg, po measured after 24 hrs by UPLC-MS/MS analysis; type: ADME, organism-based; settings: in vivo
# CWR22R [9] = test: Antiproliferative activity against human 22Rv1 cells with high PSMA expression assessed as effect on cell viability incubated for 72 hrs by MTT assay; type: functional, cell-based; settings: 22Rv1, 72 h
# [10] = Toxicity in male BALB/c nude mouse xenografted with human 22Rv1 cells assessed as decrease in lymphocytes at 25 to 100 mg/kg administered via gavage by routine blood test; type: organism-based; settings: in vivo, po, dose 25-100 mg/kg
# [11] = Oral bioavailability in Sprague-Dawley rat at 100 mg/kg measured after 24 hrs by UPLC-MS/MS analysis; type: ADME, organism-based; settings: in vivo
# [12] = Half-life in Sprague-Dawley rat at 5 mg/kg, iv measured after 24 hrs by UPLC-MS/MS analysis; type: ADME, organism-based; settings: in vivo
# [13] = C0 in Sprague-Dawley rat at 5 mg/kg, iv measured after 24 hrs by UPLC-MS/MS analysis; type: ADME, organism-based; settings: in vivo
# [14] = target: Poly [ADP-ribose] polymerase 1 (Homo sapiens, UniProt P09874); test: Inhibition of PARP1 (unknown origin) by biotinylated NAD+-based luminescence assay
# CWR22R [15] = test: Antitumor activity against human 22Rv1 cells xenografted in male BALB/c nude mouse assessed as tumor growth inhibition at 195 to 390 mg/kg administered via gavage relative to control; type: functional; settings: dose 195-390 mg/kg
# [16] = Drug uptake in PSMA positive human 22Rv1 cells at 10 uM measured after 1 to 6 hrs by LC-MS/MS analysis; type: ADME, cell-based; settings: cwr22r, time 1-6 hrs
# [17] = Subacute toxicity in male ICR mouse assessed as decrease in hematocrit at 195 to 390 mg/kg, po administered via gavage for 30 days by blood routine test; type: organism-based; settings: in vivo, 720 h, dose 195-390 mg/kg, time 30 day
# [18] = Half-life in Sprague-Dawley rat at 100 mg/kg, po measured after 24 hrs by UPLC-MS/MS analysis; type: ADME, organism-based; settings: in vivo
# CWR22R [19] = test: Antitumor activity against human 22Rv1 cells xenografted in male BALB/c nude mouse assessed as tumor growth inhibition at 25 mg/kg administered via gavage relative to control; type: functional; settings: 22Rv1, po, read-out: TGI
# [20] = AUC (0 to t) in Sprague-Dawley rat at 5 mg/kg, iv measured after 24 hrs by UPLC-MS/MS analysis; type: ADME, organism-based; settings: in vivo
# [21] = AUC (0 to infinity) in Sprague-Dawley rat at 100 mg/kg, po measured after 24 hrs by UPLC-MS/MS analysis; type: ADME, organism-based; settings: in vivo
# [22] = AUC (0 to infinity) in Sprague-Dawley rat at 5 mg/kg, iv measured after 24 hrs by UPLC-MS/MS analysis; type: ADME, organism-based; settings: in vivo
# CWR22R [23] = test: Antitumor activity against human 22Rv1 cells xenografted in male BALB/c nude mouse assessed as tumor growth inhibition at 50 mg/kg administered via gavage relative to control; type: functional; settings: 22Rv1, po, read-out: TGI
# CWR22R [24] = test: Induction of apoptosis in human 22Rv1 cells assessed as increase in cleaved caspase-3 expression at 100 uM incubated for 72 hrs by Western blot analysis; type: functional, cell-based
# [25] = Subacute toxicity in male ICR mouse assessed as decrease in WBC at 195 to 390 mg/kg, po administered via gavage for 30 days by blood routine test; type: organism-based; settings: in vivo, 720 h, dose 195-390 mg/kg, time 30 day
# [26] = Toxicity in male BALB/c nude mouse xenografted with human 22Rv1 cells assessed as decrease in body weight at 25 to 100 mg/kg administered via gavage; type: organism-based; settings: in vivo, po, dose 25-100 mg/kg
# [27] = Subacute toxicity in male ICR mouse assessed as decrease in neutrophil at 195 to 390 mg/kg, po administered via gavage for 30 days by blood routine test; type: organism-based; settings: in vivo, 720 h, dose 195-390 mg/kg, time 30 day
# [28] = Toxicity in male BALB/c nude mouse xenografted with human 22Rv1 cells assessed as decrease in body weight at 195 to 390 mg/kg administered via gavage; type: organism-based; settings: in vivo, po, dose 195-390 mg/kg
# [29] = AUC (0 to t) in Sprague-Dawley rat at 100 mg/kg, po measured after 24 hrs by UPLC-MS/MS analysis; type: ADME, organism-based; settings: in vivo
# [30] = Subacute toxicity in male ICR mouse assessed as decrease in lymphocytes at 195 to 390 mg/kg, po administered via gavage for 30 days by blood routine test; type: organism-based; settings: in vivo, 720 h, dose 195-390 mg/kg, time 30 day
# CWR22R [31] = test: Induction of DNA damage in human 22Rv1 cells assessed as increase in number of gamma-H2AX foci incubated for 12 hrs by DAPI staining based immunofluorescence analysis; type: functional, cell-based; settings: dose 50-200 µM
# PC-3 = test: Antiproliferative activity against PSMA negative human PC-3 cells assessed as effect on cell viability incubated for 72 hrs by MTT assay; type: functional
# [32] = Toxicity in male BALB/c nude mouse xenografted with human 22Rv1 cells assessed as decrease in RBC at 25 to 100 mg/kg administered via gavage by routine blood test; type: organism-based; settings: in vivo, po, dose 25-100 mg/kg
# LNCaP = test: Antiproliferative activity against human LNCaP cells with high PSMA expression assessed as effect on cell viability incubated for 72 hrs by MTT assay; type: functional, cell-based
# [33] = Toxicity in male BALB/c nude mouse xenografted with human 22Rv1 cells assessed as decrease in neutrophils at 25 to 100 mg/kg administered via gavage by routine blood test; type: organism-based; settings: in vivo, po, dose 25-100 mg/kg
# [34] = Subacute toxicity in male ICR mouse assessed as decrease in hemoglobin at 195 to 390 mg/kg, po administered via gavage for 30 days by blood routine test; type: organism-based; settings: in vivo, 720 h, dose 195-390 mg/kg, time 30 day
# [35] = Subacute toxicity in male ICR mouse assessed as decrease in red blood cells at 195 to 390 mg/kg, po administered via gavage for 30 days by blood routine test; type: organism-based; settings: in vivo, 720 h, dose 195-390 mg/kg, time 30 day
# CWR22R [36] = test: Antitumor activity against human 22Rv1 cells xenografted in male BALB/c nude mouse administered via gavage; type: functional, cell-based; settings: dose 195-390 mg/kg
# [37] = Cmax in Sprague-Dawley rat at 100 mg/kg, po measured after 24 hrs by UPLC-MS/MS analysis; type: ADME, organism-based; settings: in vivo
# [38] = Clearance in Sprague-Dawley rat at 5 mg/kg, iv measured after 24 hrs by UPLC-MS/MS analysis; type: ADME, organism-based; settings: in vivo
# Chain of Poly [ADP-ribose] polymerase 1 (P09874 whole entry): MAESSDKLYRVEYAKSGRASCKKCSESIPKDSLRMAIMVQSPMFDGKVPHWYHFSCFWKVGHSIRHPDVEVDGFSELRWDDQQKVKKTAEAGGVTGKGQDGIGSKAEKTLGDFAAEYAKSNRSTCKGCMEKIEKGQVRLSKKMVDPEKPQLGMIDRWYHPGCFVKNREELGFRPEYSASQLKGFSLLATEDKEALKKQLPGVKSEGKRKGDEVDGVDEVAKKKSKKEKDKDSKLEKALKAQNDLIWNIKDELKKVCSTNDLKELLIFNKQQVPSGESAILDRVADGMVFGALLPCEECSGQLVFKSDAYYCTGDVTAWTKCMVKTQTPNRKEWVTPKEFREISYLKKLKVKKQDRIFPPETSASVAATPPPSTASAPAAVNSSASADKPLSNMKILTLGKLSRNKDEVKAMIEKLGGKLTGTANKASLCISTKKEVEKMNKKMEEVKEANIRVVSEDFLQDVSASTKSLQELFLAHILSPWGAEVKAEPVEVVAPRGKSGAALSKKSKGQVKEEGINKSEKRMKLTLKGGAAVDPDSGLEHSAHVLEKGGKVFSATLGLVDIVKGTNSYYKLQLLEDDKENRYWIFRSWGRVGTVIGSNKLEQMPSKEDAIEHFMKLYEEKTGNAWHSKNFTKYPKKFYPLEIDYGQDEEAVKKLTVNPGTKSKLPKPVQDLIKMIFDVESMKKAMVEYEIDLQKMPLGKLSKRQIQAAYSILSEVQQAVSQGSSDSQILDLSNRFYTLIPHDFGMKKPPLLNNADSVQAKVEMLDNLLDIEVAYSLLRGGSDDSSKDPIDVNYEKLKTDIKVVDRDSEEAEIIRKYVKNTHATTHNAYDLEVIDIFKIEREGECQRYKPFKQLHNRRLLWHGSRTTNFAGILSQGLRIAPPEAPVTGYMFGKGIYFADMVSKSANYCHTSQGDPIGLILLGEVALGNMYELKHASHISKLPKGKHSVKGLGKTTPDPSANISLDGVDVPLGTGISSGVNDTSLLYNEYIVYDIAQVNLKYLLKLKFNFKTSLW
structure (smiles),measurement,setting,value
O=C(O)CC[C@H](NC(=O)N[C@@H](CCCCNC(=O)CCC(=O)NC1(C(=O)N2CCN(C(=O)c3cc(Cc4n[nH]c(=O)c5ccccc45)ccc3F)CC2)CC1)C(=O)O)C(=O)O,Activity,[1],Non-toxic
same,inhibition in vivo at 100 mg/kg,CWR22R [2],70%
same,Vd,[3],0.383 L/kg
same,CC50 at 72 h,[4],> 1 mM
same,Drug uptake,[5],Not_active
same,Activity,CWR22R [6],Not active; Drug Mode Of Action Appears To Be Via Binding To Psma Receptor
same,Activity,[7],Non-toxic
same,Tmax,[8],1 h
same,IC50,CWR22R [9],84.5 µM
same,Activity,[10],Non-toxic
same,bioavailability,[11],18.6%
same,half-life,[12],21.7 min
same,C0 at 24 h,[13],13500 ng/mL
same,IC50,[14],1 nM
same,TGI,CWR22R [15],73%
same,Drug uptake,[16],Active
same,Activity,[17],Non-toxic
same,half-life,[18],61 min
same,inhibition in vivo at 25 mg/kg,CWR22R [19],52%
same,AUC(0-t) at 24 h,[20],7310 ng·h/mL
same,AUC(0-inf),[21],27800 ng·h/mL
same,AUC(0-inf),[22],7460 ng·h/mL
same,inhibition in vivo at 50 mg/kg,CWR22R [23],65%
same,Activity,CWR22R [24],Active; Similar To Olaparib-Treated Group
same,Activity,[25],Non-toxic
same,Activity,[26],Non-toxic
same,Activity,[27],Non-toxic
same,Activity,[28],Non-toxic
same,AUC(0-t) at 24 h,[29],27400 ng·h/mL
same,Activity,[30],Non-toxic
same,Activity,CWR22R [31],Dose-dependent-effect
same,CC50,PC-3,> 1 mM
same,Activity,[32],Non-toxic
same,IC50,LNCaP,80.6 µM
same,Activity,[33],Non-toxic
same,Activity,[34],Non-toxic
same,Activity,[35],Non-toxic
same,Activity,CWR22R [36],Dose-dependent-effect
same,Cmax,[37],7310 ng/mL
same,clearance,[38],12.2 mL/min/kg
